Source: US20250129021A1, “SMALL MOLECULE PROTEIN SYNTHESIS MODULATORS” (Interdict Bio, Inc., priority 2023, published 2025)
pIC50: −log10 of the molar value. Like-named read-outs stand apart in the source and are kept apart here.

Tests used:
MYC = assay: In vitro transcription-translation (IVTT) assay, MYC reporter; type: biochemical; conditions: HeLa S3 lysate, 2 hrs at 30° C.
Method in brief: (§1)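 Reporter: mCherry, P2A, then 3×FLAG-target peptide-sfGFP fusion, IRES-initiated; HeLa S3 lysate IVTT; cpd dilutions 30 μM−0.1 μM half-log in 100% DMSO (dilution-plate conc); DNA added last; 2 h, 30° C; PBS quench.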

CCND1 = assay: In vitro transcription-translation (IVTT) assay, CCND1 reporter; type: biochemical; conditions: HeLa S3 lysate, sfGFP/mCherry ratio
Method in brief: as §1

MCL-1 = assay: In vitro transcription-translation (IVTT) assay, MCL-1 reporter; type: biochemical; conditions: HeLa S3 lysate, sfGFP/mCherry ratio
Method in brief: as §1

CCNTB1 = assay: In vitro transcription-translation (IVTT) assay, CCNTB1 reporter; type: biochemical; conditions: HeLa S3 lysate, sfGFP/mCherry ratio
Method in brief: (§2)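 Cell-free HeLa S3 lysate reactions expressing sfGFP/mCherry reporter constructs ran 2 h at 30 °C with compound from half-log DMSO series (30 μM–0.1 μM as prepared), then were quenched with PBS. No-DNA background was subtracted, and the sfGFP/mCherry ratio was normalized to the no-drug control and fit for IC50.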

cGAS = assay: In vitro transcription-translation (IVTT) assay, cGAS reporter; type: biochemical; conditions: HeLa S3 lysate, sfGFP/mCherry ratio
Description: (§3) In vitro transcription-translation assay setup: Each assay includes a master mix containing lysate and shared components, a 96-well plate containing compound titrations for testing, a 96-well DNA plate with reporter constructs to be tested, 96-well skirted PCR plates, and 96-well flat-bottom, black, fluorescent assay plates. Reaction materials setup: (A) Master mix—15 mL conical tube (3 mL of HeLa S3 Lysate described above; 0.6 mL of ThermoFisher Accessory Proteins (#88882); 1.2 ml of ThermoFisher Reaction Mix (#88882); 0.54 mL of nuclease-free Water); (B) 96-Well Master Mix+Compound Plate (Half-log dilutions (30 μM−0.1 μM) of 4 compounds of interest are prepared in 100% DMSO); 96-Well DNA Plate (Five DNA constructs are plated into single columns within the plate. Row 1 of the column contains nuclease free H2O, all other wells contain 110 ng/μL plasmid DNA). Reactions are started by mixing 155 μL of master mix and 3.5 μL of compound serial dilutions, then 9.1 μL of master mix+compound mixture is aliquoted across 5 96-well plates. Reactions begin with final addition of 2 μL of DNA for a 11.1 μL reaction volume in each well. The entire plate is sealed, and incubated for 2 hrs at 30° C. After 2 hrs, quench the assay using 45 μL of PBS, and transfer 50 μL to a flat-bottom black microplate Quantify the sfGFP and mCherry signals from each well on each plate, taking 3 reads of each plate, and perform data analysis below.
(§4) In vitro transcription-translation assay data analysis: Each plate is read three times in channels for both sfGFP and mCherry signals. The average signal across these 3 reads is then calculated for further analysis. Control wells containing no DNA reporter are subtracted from reporter wells in the same column to remove auto-fluorescence of the lysate. Then, the ratio of sfGFP/mCherry is calculated per well, and these ratios are averaged across the triplicate experiments on the same plate. Finally, the ratio of each titration concentration is normalized to the no drug control to create the normalized stalling metric. The error on this measurement is determined by propagating error through the averaging and normalization steps. Values are plotted and fit for IC50 determination for each test sequence and titration of compound.

STING = assay: In vitro transcription-translation (IVTT) assay, STING reporter; type: biochemical; conditions: HeLa S3 lysate, sfGFP/mCherry ratio
Description: as §3, §4

JAK1 = assay: In vitro transcription-translation (IVTT) assay, JAK1 reporter; type: biochemical; conditions: HeLa S3 lysate, sfGFP/mCherry ratio
Description: as §3, §4

NFKB1 = assay: In vitro transcription-translation (IVTT) assay, NFKB1 reporter; type: biochemical; conditions: HeLa S3 lysate, sfGFP/mCherry ratio
Method in brief: as §2

ALK = assay: In vitro transcription-translation (IVTT) assay, ALK reporter; type: biochemical; conditions: HeLa S3 lysate, sfGFP/mCherry ratio, 2 hrs at 30° C.
Method in brief: as §1

KRAS G12D = assay: In vitro transcription-translation (IVTT) assay, KRAS G12D reporter; type: biochemical; conditions: HeLa S3 lysate, sfGFP/mCherry ratio, 2 hrs at 30° C.
Method in brief: as §1

HEK 293T = assay: Cell viability (CellTiter-Fluor), HEK 293T; type: cell-based; conditions: Homo sapiens, 24-72 hrs
Description: (§5) Count and dispense 2,000-10,000 cells per well (100 μL volume) in black 96-well tissue culture microplate and let cells adhere overnight. Add compound dissolved in 100% DMSO to each well as needed and incubate cells in standard culture conditions for 24-72 hrs. Final DMSO concentration in each well should be 0.1-0.5%. At the desired time point, gently aspirate compound containing media and replace with PBS to wash. Repeat wash step for 2 total washes. Remove PBS and add 100 μL CellTiter-Fluor reagent (Promega) reagent to each well. Seal plate and incubate 1 hr at room temperature with orbital shaking. Analyze fluorescence using plate reader to quantify viable cells compared with vehicle (DMSO) control.

HPAF-II = assay: Cell viability (CellTiter-Fluor), HPAF-II; type: cell-based; conditions: Homo sapiens, 24-72 hrs
Description: as §5

KLE = assay: Cell viability (CellTiter-Fluor), KLE; type: cell-based; conditions: Homo sapiens, 24-72 hrs
Description: as §5

LS411N = assay: Cell viability (CellTiter-Fluor), LS411N; type: cell-based; conditions: Homo sapiens, LS-411N, 24-72 hrs
Description: as §5

MCF7 = assay: Cell viability (CellTiter-Fluor), MCF7; type: cell-based; conditions: Homo sapiens, 24-72 hrs
Description: as §5

NCI-H1915 = assay: Cell viability (CellTiter-Fluor), NCI-H1915; type: cell-based; conditions: 24-72 hrs
Description: as §5

HCC38 = assay: Cell viability (CellTiter-Fluor), HCC38; type: cell-based; conditions: Homo sapiens, 24-72 hrs
Description: as §5

KATO-III = assay: Cell viability (CellTiter-Fluor), KATO-III; type: cell-based; conditions: Homo sapiens, 24-72 hrs
Description: as §5

MS751 = assay: Cell viability (CellTiter-Fluor), MS751; type: cell-based; conditions: 24-72 hrs
Description: as §5

T47D = assay: Cell viability (CellTiter-Fluor), T47D; type: cell-based; conditions: Homo sapiens, 24-72 hrs
Description: as §5

BCL-2 = assay: In vitro transcription-translation (IVTT) assay, BCL-2 reporter; type: biochemical; conditions: HeLa S3 lysate, sfGFP/mCherry ratio, 2 hrs at 30° C.
Method in brief: as §1

HEPG2 = assay: Cell viability (CellTiter-Fluor), HEPG2; type: cell-based; conditions: Homo sapiens, 24-72 hrs
Description: as §5

[1] = IVTT assay, MYC reporter, normalized sfGFP/mCherry ratio, half-log dilutions 30 μM-0.1 μM
[2] = IVTT assay, read-out: MCL1 IC50

| pIC50 (CCND1; IVTT assay) | pIC50 (MCL-1; [2]) | pIC50 (CCNTB1) | pIC50 (cGAS) | pIC50 (STING) | pIC50 (JAK1) | pIC50 (NFKB1) | Structure (SMILES) | pIC50 (MYC; [1]) | pIC50 (MYC; sfGFP/mCherry ratio) | pIC50 (MCL-1; 2 hrs at 30° C.) | pIC50 (ALK) | pIC50 (KRAS G12D) | pIC50 (HEK 293T) | pIC50 (HPAF-II) | pIC50 (KLE) | pIC50 (LS411N) | pIC50 (MCF7) | pIC50 (NCI-H1915) | pIC50 (HCC38) | pIC50 (KATO-III) | also measured |
| --- | --- | --- | --- | --- | --- | --- | --- | --- | --- | --- | --- | --- | --- | --- | --- | --- | --- | --- | --- | --- | --- |
| > 5.00 | > 5.00 | > 5.00 | > 5.00 | > 5.00 | > 5.00 | > 5.00 | O=C(NCc1cccc(C2CNC2)c1)O[C@@H]1[C@@H](O)CN[C@@H]1Cc1ccc(-c2cnco2)cc1 [V192154, (2R,3S,4S)-4-hydroxy-2-{[4-(1,3-oxazol-5-yl)phenyl]methyl}pyrrolidin-3-yl N-{[3-(azetidin-3-yl)phenyl]methyl}carbamate] | > 5.00 | – | – | – | – | – | – | – | – | – | – | – | – | – |
| > 5.00 | > 5.00 | > 5.00 | > 5.00 | > 5.00 | > 5.00 | > 5.00 | O=C(NCC[C@@H]1CCCN1)O[C@@H]1[C@@H](O)CN[C@@H]1Cc1ccc(-c2cnco2)cc1 [V192047, (2R,3S,4S)-4-hydroxy-2-{[4-(1,3-oxazol-5-yl)phenyl]methyl}pyrrolidin-3-yl N-{2-[(2S)-pyrrolidin-2-yl]ethyl}carbamate] | > 5.00 | – | – | – | – | – | – | – | – | – | – | – | – | – |
| – | – | – | – | – | – | – | COc1ccc(C[C@H]2NC[C@H](O)[C@H]2OC(=O)NCC2CC2)cc1 [V187189, (2R,3S,4S)-4-hydroxy-2-[(4-methoxyphenyl)methyl]pyrrolidin-3-yl N-(cyclopropylmethyl)carbamate; trifluoroacetic acid] | – | > 5.00 | > 5.00 | > 5.00 | > 5.00 | > 6.60 | 6.00 to 6.60 | 6.00 to 6.60 | > 6.60 | 6.00 to 6.60 | 6.00 to 6.60 | 6.00 to 6.60 | 6.00 to 6.60 | pIC50 (MS751): 6.00 to 6.60; pIC50 (T47D): 6.00 to 6.60 |
| – | – | – | – | – | – | – | COc1ccc(C[C@H]2NC[C@H](O)[C@H]2OC(=O)NCc2ccccc2)cc1 [V187190, (2R,3S,4S)-4-hydroxy-2-[(4-methoxyphenyl)methyl]pyrrolidin-3-yl N-benzylcarbamate; trifluoroacetic acid] | – | > 5.00 | > 5.00 | > 5.00 | > 5.00 | > 6.60 | 6.00 to 6.60 | > 6.60 | > 6.60 | > 6.60 | > 6.60 | 6.00 to 6.60 | > 6.60 | pIC50 (BCL-2): > 5.00; pIC50 (CCND1; 2 hrs at 30° C.): > 5.00; pIC50 (HEPG2): > 6.60; pIC50 (MS751): > 6.60; pIC50 (T47D): > 6.60 |

| Structure (SMILES) | pIC50 (CCND1; IVTT assay) | pIC50 (MCL-1; [2]) | pIC50 (CCNTB1) | pIC50 (cGAS) | pIC50 (STING) | pIC50 (JAK1) | pIC50 (NFKB1) | pIC50 (MYC; [1]) | pIC50 (MYC; sfGFP/mCherry ratio) | pIC50 (MCL-1; 2 hrs at 30° C.) | pIC50 (ALK) | pIC50 (KRAS G12D) | pIC50 (HEK 293T) | pIC50 (HPAF-II) | pIC50 (KLE) | pIC50 (LS411N) | pIC50 (MCF7) | pIC50 (NCI-H1915) | pIC50 (HCC38) | pIC50 (KATO-III) | also measured |
| --- | --- | --- | --- | --- | --- | --- | --- | --- | --- | --- | --- | --- | --- | --- | --- | --- | --- | --- | --- | --- | --- |
| O=C(NCc1cccc(F)c1)O[C@@H]1[C@@H](O)CN[C@@H]1Cc1ccc(-c2cnc(C(F)(F)F)s2)cc1 [V192114, (2R,3S,4S)-4-hydroxy-2-({4-[2-(trifluoromethyl)-1,3-thiazol-5-yl]phenyl}methyl)pyrrolidin-3-yl N-[(3-fluorophenyl)methyl]carbamate] | < 4.52 | < 4.52 | < 4.52 | > 5.00 | < 4.52 | 4.70 to 5.00 | > 5.00 | < 4.52 | – | – | – | – | – | – | – | – | – | – | – | – | – |
